How the values were obtained:
Type in all cases: in vivo
[1] = tested on: Alopecurus myosuroides (ALOMY); experiment: Example B pre-emergence herbicidal activity; details: 312 h, rate 250 g/ha, evaluated after 13 days, read-out: Pre-Emergence Activity ALOMY (100=total damage to plant; 0=no damage to plant)
Outline: (§1)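 Damage was rated 13 days after treatment on a 0 (no damage) to 100 (total damage) scale. Pots of soil-sown plants had been sprayed one day after sowing for pre-emergence or at 8 days for post-emergence. Spray: acetone/water (50:50), 0.5% Tween 20.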

[2] = tested on: Amaranthus retoflexus (AMARE); experiment: Example B pre-emergence herbicidal activity; details: Amaranthus retroflexus, 312 h, rate 250 g/ha, evaluated after 13 days, read-out: Pre-Emergence Activity AMARE (100=total damage to plant; 0=no damage to plant)
Outline: as §1

[3] = tested on: Avena fatua (AVEFA); experiment: Example B pre-emergence herbicidal activity; details: 312 h, rate 250 g/ha, evaluated after 13 days, read-out: Pre-Emergence Activity AVEFA (100=total damage to plant; 0=no damage to plant)
Outline: as §1

[4] = tested on: Echinochloa crus-galli (ECHCG); experiment: Example B pre-emergence herbicidal activity; details: 312 h, rate 250 g/ha, evaluated after 13 days, read-out: Pre-Emergence Activity ECHCG (100=total damage to plant; 0=no damage to plant)
Outline: as §1

[5] = tested on: Setaria faberi (SETFA); experiment: Example B pre-emergence herbicidal activity; details: 312 h, rate 250 g/ha, evaluated after 13 days, read-out: Pre-Emergence Activity SETFA (100=total damage to plant; 0=no damage to plant)
Outline: as §1

[6] = tested on: Alopecurus myosuroides (ALOMY); experiment: Example B post-emergence herbicidal activity; details: 312 h, rate 250 g/ha, evaluated after 13 days, read-out: Post-emergence activity ALOMY (100=total damage to plant; 0=no damage to plant)
Outline: as §1

[7] = tested on: Amaranthus retoflexus (AMARE); experiment: Example B post-emergence herbicidal activity; details: Amaranthus retroflexus, 312 h, rate 250 g/ha, evaluated after 13 days, read-out: Post-emergence activity AMARE (100=total damage to plant; 0=no damage to plant)
Outline: as §1

[8] = tested on: Avena fatua (AVEFA); experiment: Example B post-emergence herbicidal activity; details: 312 h, rate 250 g/ha, evaluated after 13 days, read-out: Post-emergence activity AVEFA (100=total damage to plant; 0=no damage to plant)
Outline: as §1

[9] = tested on: Echinochloa crus-galli (ECHCG); experiment: Example B post-emergence herbicidal activity; details: 312 h, rate 250 g/ha, evaluated after 13 days, read-out: Post-emergence activity ECHCG (100=total damage to plant; 0=no damage to plant)
Outline: as §1

[10] = tested on: Setaria faberi (SETFA); experiment: Example B post-emergence herbicidal activity; details: 312 h, rate 250 g/ha, evaluated after 13 days, read-out: Post-emergence activity SETFA (100=total damage to plant; 0=no damage to plant)
Outline: as §1

`C=Cc1ccc(-c2nc(C3C(=O)[C@@H]4CC[C@@H](C4)C3=O)c(C)s2)cc1` (stereo partly drawn) [Compound T78] gave a pest or weed control at 250 g/ha [1] of 0%, a pest or weed control at 250 g/ha [2] of 0% and a pest or weed control at 250 g/ha [3] of 90%. It also gave a pest or weed control at 250 g/ha [4] of 0%, a pest or weed control at 250 g/ha [5] of 0% and a pest or weed control at 250 g/ha [6] of 60%. It also gave a pest or weed control at 250 g/ha [7] of 0%, a pest or weed control at 250 g/ha [8] of 0% and a pest or weed control at 250 g/ha [9] of 70%. The pest or weed control at 250 g/ha [10] was 80%.

`CSc1ccc(-c2nc(C3C(=O)[C@@H]4CC[C@@H](C4)C3=O)c(C)s2)cc1` (stereo partly drawn) [Compound T81] gave a pest or weed control at 250 g/ha [1] of 50%, a pest or weed control at 250 g/ha [2] of 0% and a pest or weed control at 250 g/ha [3] of 40%. The pest or weed control at 250 g/ha [4] was 100%, the pest or weed control at 250 g/ha [5] was 100% and the pest or weed control at 250 g/ha [6] was 50%. It also gave a pest or weed control at 250 g/ha [7] of 0%, a pest or weed control at 250 g/ha [8] of 50% and a pest or weed control at 250 g/ha [9] of 100%. The pest or weed control at 250 g/ha [10] was 100%.

Molecule `Cc1sc(-c2ccc([S+](C)[O-])cc2)nc1C1C(=O)[C@@H]2CC[C@@H](C2)C1=O` (stereo partly drawn) [Compound T82] has a pest or weed control at 250 g/ha [1] of 0%, a pest or weed control at 250 g/ha [2] of 0% and a pest or weed control at 250 g/ha [3] of 0%. The pest or weed control at 250 g/ha [4] was 40%, the pest or weed control at 250 g/ha [5] was 80% and the pest or weed control at 250 g/ha [6] was 20%. It also gave a pest or weed control at 250 g/ha [7] of 30%, a pest or weed control at 250 g/ha [8] of 0% and a pest or weed control at 250 g/ha [9] of 100%. The pest or weed control at 250 g/ha [10] was 100%.

`CCc1sc(-c2ccc(SC)cc2)nc1C1C(=O)[C@@H]2CC[C@@H](C2)C1=O` (stereo partly drawn) [Compound T83] was tested, and the pest or weed control at 250 g/ha [1] was 50%, the pest or weed control at 250 g/ha [2] was 0% and the pest or weed control at 250 g/ha [3] was 0%. For the same molecule, the pest or weed control at 250 g/ha [4] was 100%, the pest or weed control at 250 g/ha [5] was 90% and the pest or weed control at 250 g/ha [6] was 60%. The pest or weed control at 250 g/ha [7] was 0%, the pest or weed control at 250 g/ha [8] was 100% and the pest or weed control at 250 g/ha [9] was 100%. The pest or weed control at 250 g/ha [10] was 100%.

With `Cc1sc(-c2ccc(OC(F)F)cc2Cl)nc1C1C(=O)[C@@H]2CC[C@@H](C2)C1=O` (stereo partly drawn) [Compound T84] the pest or weed control at 250 g/ha [1] was 70%, the pest or weed control at 250 g/ha [2] was 0% and the pest or weed control at 250 g/ha [3] was 40%. The pest or weed control at 250 g/ha [4] was 100%, the pest or weed control at 250 g/ha [5] was 100% and the pest or weed control at 250 g/ha [6] was 90%. For the same molecule, the pest or weed control at 250 g/ha [7] was 40%, the pest or weed control at 250 g/ha [8] was 70% and the pest or weed control at 250 g/ha [9] was 100%. For the same molecule, the pest or weed control at 250 g/ha [10] was 100%.

Work on `Cc1sc(-c2ccc(C(C)C)cc2)nc1C1C(=O)[C@@H]2CC[C@@H](C2)C1=O` (stereo partly drawn) [Compound T87] yielded a pest or weed control at 250 g/ha [1] of 20%, a pest or weed control at 250 g/ha [2] of 20% and a pest or weed control at 250 g/ha [3] of 50%. For the same molecule, the pest or weed control at 250 g/ha [4] was 60%, the pest or weed control at 250 g/ha [5] was 60% and the pest or weed control at 250 g/ha [6] was 50%. It also gave a pest or weed control at 250 g/ha [7] of 0%, a pest or weed control at 250 g/ha [8] of 60% and a pest or weed control at 250 g/ha [9] of 90%. For the same molecule, the pest or weed control at 250 g/ha [10] was 90%.

`Cc1cnc(-c2ccc(Cl)cc2)nc1C1C(=O)[C@@H]2CC[C@@H](C2)C1=O` (stereo partly drawn) [Compound T88] was tested, and the pest or weed control at 250 g/ha [1] was 0%, the pest or weed control at 250 g/ha [2] was 0% and the pest or weed control at 250 g/ha [3] was 0%. It also gave a pest or weed control at 250 g/ha [4] of 60%, a pest or weed control at 250 g/ha [5] of 80% and a pest or weed control at 250 g/ha [6] of 10%. The pest or weed control at 250 g/ha [7] was 0%, the pest or weed control at 250 g/ha [8] was 0% and the pest or weed control at 250 g/ha [9] was 90%. For the same molecule, the pest or weed control at 250 g/ha [10] was 70%.

`Cc1sc(-c2ccc(OC(F)F)cc2F)nc1C1C(=O)[C@@H]2CC[C@@H](C2)C1=O` (stereo partly drawn) [Compound T92] showed a pest or weed control at 250 g/ha [1] of 70%, a pest or weed control at 250 g/ha [2] of 0% and a pest or weed control at 250 g/ha [3] of 90%. For the same molecule, the pest or weed control at 250 g/ha [4] was 100%, the pest or weed control at 250 g/ha [5] was 100% and the pest or weed control at 250 g/ha [6] was 100%. For the same molecule, the pest or weed control at 250 g/ha [7] was 10%, the pest or weed control at 250 g/ha [8] was 100% and the pest or weed control at 250 g/ha [9] was 100%. The pest or weed control at 250 g/ha [10] was 100%.

In the case of `CCc1sc(-c2ccccc2)nc1C1C(=O)[C@@H]2CC[C@@H](C2)C1=O` (stereo partly drawn) [Compound T93], the pest or weed control at 250 g/ha [1] is reported as 20%, the pest or weed control at 250 g/ha [2] is reported as 0% and the pest or weed control at 250 g/ha [3] is reported as 0%. For the same molecule, the pest or weed control at 250 g/ha [4] was 40%, the pest or weed control at 250 g/ha [5] was 20% and the pest or weed control at 250 g/ha [6] was 30%. It also gave a pest or weed control at 250 g/ha [7] of 0%, a pest or weed control at 250 g/ha [8] of 0% and a pest or weed control at 250 g/ha [9] of 70%. For the same molecule, the pest or weed control at 250 g/ha [10] was 70%.
